Experiments:
[1] = tested on: HIV-1 NL4-3 / TZM-bl cells; assay: HIV-1 virion-based (BlaM-Vpr) virus-cell fusion assay; conditions: standard (pre-CD4 binding) and TAS (post-CD4 binding, 23°C 1 h then 37°C 2 hr); E2 peptides 20 µM, AMD-3100 10 µM, 2F5 0.5 µg/ml, b12 and B4 0.3 µg/ml; five independent experiments each in triplicate
Procedure: HIV-1 virions containing the BlaM-Vpr chimera were produced as previously described [33]. Briefly, 293T cells were co-transfected with pNL4-3 proviral DNA, pCMV-BlaM-Vpr, and pAdVAntage vectors. After 2 days of cultivation, the virus-containing supernatant was centrifuged for 10 min at 300×g to remove cellular debris. The HIV-1 virion-containing supernatant was overlaid onto a 20% sucrose cushion and ultracentrifuged at 35000×g at 4°C for 90 min. The resulting pellet was resuspended in medium and aliquots were frozen at −80°C until usage.
The virion-based fusion assay was performed essentially as described elsewhere [41]. Briefly, 5×10^4 TZM-bl cells were infected with sucrose-purified HIV-1 NL4-3 virions containing BlaM-Vpr (5 ng p24-Gag per approach). Under temperature-arrested state (TAS) conditions, binding of the HI virions to target cells was allowed at low temperature via spinning inoculation, for which virions were added to cells and centrifuged at 2095×g, 4°C for 30 min. […] BlaM activity was quantified using a fluorescence plate reader. The extent of virus-cell fusion was determined from the ratio of blue (460 nm) and green (510 nm) emission upon exciting the cells at 405 nm.
To find out whether early or late steps of HIV-1 entry are affected by the E2 peptides, the E2 peptide activity was determined before and after gp120/CD4 engagement using the Vpr-β-lactamase (Vpr-BlaM) enzyme-based virus-cell fusion assay under standard (pre-CD4 binding) and temperature-arrested state (TAS; post-CD4 binding) conditions, respectively.
The HIV-inhibitory activity of known HIV-1 entry inhibitors or respective E2 peptides was determined using a virus-cell fusion assay under standard (respective inhibitors were added simultaneously to HIV NL4-3BlaM-Vpr inoculum: pre-CD4 binding) or under TAS (temperature-arrested state) conditions (respective inhibitors were added at low temperature of 23°C for 1 h after spin-inoculation [4°C] and removal of unbound HIV-1 particles: post-CD4 binding). […] Percentages were calculated in relation to mock-treated cells. […]

[2] = tested on: 6-helix bundle (N36/C34-biotin); assay: Inhibition of 6-HB formation, ELISA; type: binding, HIV-1; conditions: mAb NC-1 capture, N36 0.25 µM, C34-biotin 0.25 µM, graded peptide, 30 min 37°C, triplicate
Procedure: Briefly, 96-well polystyrene plates were coated with the 6-HB-specific monoclonal antibody, NC-1 IgG, (described by) (2 µg/ml in 0.1 M Tris, pH 8.8), and then blocked with 2% non-fat milk. N36 (0.25 µM), the tested peptides and C34 as control were added at graded concentrations into the wells. After incubation for 30 min at 37°C, C34-biotin (0.25 µM) was added, followed by incubation for 45 min at 37°C and washing with wash buffer (PBS containing 0.05% Tween-20) six times. Streptavidin-labeled horseradish peroxidase (Invitrogen, Grand Island, NY) and the substrate 3,3′,5,5′-tetramethylbenzidine (Sigma, St. Louis, MO) were added sequentially. Absorbance at 450 nm (OD450) was measured. The percent inhibition of 6-HB formation by the peptides was calculated as described before.
Figure 5 E2-derived peptides bind to the disulfide loop of gp41. (A) Illustration of gp41 variants (strains IIIB, MN) and peptides (N36, C34) used in ELISA as well as the binding epitopes of different monoclonal gp41 antibodies. Gp41 consists of the N-terminal fusion peptide (FP), the N- and C-heptad repeats (NHR, CHR) that are connected by the disulfide loop region (C-C loop), the membrane proximal external region (MPER), the α-helical transmembrane-spanning domain (TM), and the cytoplasmic tail (CP). […] Each sample was tested in triplicate. This experiment was repeated twice and similar results were obtained. […]

CCR5 = CCR5 surface expression, flow cytometry; type: cell-based, human; conditions: PBMC and TZM-bl cells; E2 peptides 25 µM, RANTES 50 nM; 6 hr; FACS; RTCN vs mock; average of two independent experiments each in triplicate
Procedure: PHA/IL-2-stimulated PBMC or TZM-bl cells were incubated with E2 peptides (25 µM), phorbol 12-myristate 13-acetate (PMA; 40 ng/ml), SDF-1α (1 µg/ml) or RANTES (50 nM) for 6 hr. CD4, CXCR4 and CCR5 surface expression was analyzed by using standard FACS staining protocols. Cells were washed with PBS and incubated for 30 min at 4°C with PE-labeled antibodies (CD4 clone SK3, CXCR4 clone 12G5, and CCR5 clone 2D7, BD Biosciences, Germany). Subsequently, washed cells were resuspended in PBS and analyzed with a FACSCalibur™ flow cytometer (BD Biosciences, Germany).
The non-HIV-1-inhibitory peptide P28 derived from the C-terminal part of E2 (residue 271 to 290), served as a negative control.
CD4, CXCR4 and CCR5 expression on PBMC (A) and TZM-bl cells (B) after preincubation with E2 peptides were determined by flow cytometry analysis. […] Percentages illustrate the ratio-to-cell-negative (RTCN) values that were calculated from the percentage of positive cells and the fluorescence intensity of peptide-incubated cells compared to mock-incubated cells. Columns show average values ±SD of two independent experiments each performed in triplicate. *: p<0.05; **: p<0.01 (mock- vs. inhibitor-incubated cells).

T32 = assay: Unspecific binding of E2 peptides to antibody T32; conditions: data not shown
[3] = tested on: HIV-1 Env (NL4-3 gp160, X4env) on 293T cells; assay: HIV-1 gp160 (X4env) binding of FITC-labeled E2 peptides, flow cytometry; conditions: FITC-labeled peptides 1 µM; for binding to HIV-1 Env-expressing cells: sCD4 pretreated, 1 h 37°C, X4env- vs vector-transfected 293T cells, three independent experiments each in duplicate; for background attachment to mock- or vector-transfected cells: mock- or vector-transfected 293T cells
Procedure: 293T cells were transiently transfected with an HIV-1 Env expression vector, coding for the CXCR4-tropic NL4-3 gp160 precursor (X4env) for surface expression of gp120-gp41 Env trimers or empty plasmid as control. After 2 days of cultivation, cells were incubated with 1 µg sCD4 and 1 µM FITC-conjugated E2 peptides for 1 h at 37°C respectively. Subsequently, cells were washed, resuspended in PBS, and analyzed by flow cytometry using a BD™ LSR II flow cytometer (Becton Dickinson Biosciences, Germany). Flow cytometer data were collected with BD FACSDiva™ and analyzed with FCS Express V3. In parallel, gp160 expression was determined by staining with HIV-1 gp120 mAbs (2G12 and 17b) and an anti-human IgG-FITC pAb (Dako, Germany).
Previously, we have shown that the target of the HIV-1-inhibitory E2 peptides is most likely located on the HIV-1 particle, rather than on the cell. The surface of the HIV-1 particle consists of a lipid bilayer with incorporated host cell proteins and a limited number of functional envelope (Env) trimers (on average 14±7). Therefore, we tested whether the HIV-1-inhibitory E2 peptides interact with trimeric HIV-1 Env proteins expressed on the surface of transfected cells. For this purpose, 293T cells were transiently transfected with an HIV-1 Env expression vector, coding for the gp160 precursor of the CXCR4-tropic NL4-3 envelope (X4env). Binding of FITC-labeled E2 peptides was monitored by flow cytometry.
Figure 4 Recombinant E2_340-Fc protein and E2-derived peptides bind HIV-1 gp41. (A) 293T cells expressing NL4-3 envelope (X4env) or empty plasmid as control were incubated with sCD4 and FITC-conjugated E2 peptides, respectively. Peptide binding was analyzed by flow cytometry. Percentages illustrate the increase of cell binding to X4env-transfected cells. The increase is normalized to the background binding of E2 peptides to mock-transfected cells by calculating the RTCN value. […] (C) E2 peptides with increasing amounts were added to recombinant E2_340-Fc protein (at constant concentration) and then transferred to immobilized recombinant gp41MN.

Compound	inhibition of virus-cell fusion, standard versus TAS conditions [1]	inhibition of 6-HB formation [2]	CCR5 surface presentation (CCR5)	unspecific binding to antibody T32 (T32)	binding to HIV-1 Env-expressing cells [3]	background attachment to mock- or vector-transfected cells [3]
CC(=O)N[C@@H](CC(C)C)C(=O)N[C@@H](CS)C(=O)N[C@@H](CC(=O)O)C(=O)N[C@@H](CS)C(=O)N1CCC[C@H]1C(=O)N[C@@H](CC(N)=O)C(=O)NCC(=O)N1CCC[C@H]1C(=O)N[C@@H](Cc1c[nH]c2ccccc12)C(=O)N[C@H](C(=O)N[C@@H](Cc1c[nH]c2ccccc12)C(=O)N[C@H](C(=O)N1CCC[C@H]1C(=O)N[C@@H](C)C(=O)N[C@@H](Cc1ccccc1)C(=O)N[C@@H](CS)C(=O)N[C@@H](CCC(N)=O)C(=O)N[C@@H](C)C(=O)N[C@H](C(=O)NCC(=O)O)C(C)C)C(C)C)C(C)C [P6-2]	full activity under both conditions	Neither P4-7 nor P6-2 was able to interfere with the formation of 6-HB	no relevant effect on HIV-1 receptor presentation	No unspecific binding	significant increase in the binding	background attachment
Ac-WDRGNVTLLCDCPNGPWVWV [P4-7, 20 mer peptide presenting amino acids 37 to 56 of the GBV-C E2 protein]	full activity under both conditions	Neither P4-7 nor P6-2 was able to interfere with the formation of 6-HB	no relevant effect on HIV-1 receptor presentation	No unspecific binding	significant increase in the binding	background attachment
